Laboratory results from patent US10709714B2 (CL BioSciences LLC, priority 2013, dated 2020).
“Also recorded” adds a separate entry of the source. Marks after values point to notes of the source that are not given here.

Experiments:
ovariectomized Mastomys = assay: MicroCT of trabecular and cortical bone, Model 3 Mastomys OVX; type: in vivo
CCK2 receptor = molecular target: T1, CCK2 receptor (Homo sapiens, UniProt P32239); assay: Gastrin-stimulated cAMP production and calcitonin release/transcription in MTC-SK cells; type: cell-based; settings: MTC-SK cells
T1 construct: Gastrin stimulated both cAMP as well as calcitonin release from the well-differentiated human MTC cell line, MTC-SK; endogenous in cells; host or cells: MTC-SK (human medullary thyroid carcinoma cell line)
T1 sequence (P32239 1-447): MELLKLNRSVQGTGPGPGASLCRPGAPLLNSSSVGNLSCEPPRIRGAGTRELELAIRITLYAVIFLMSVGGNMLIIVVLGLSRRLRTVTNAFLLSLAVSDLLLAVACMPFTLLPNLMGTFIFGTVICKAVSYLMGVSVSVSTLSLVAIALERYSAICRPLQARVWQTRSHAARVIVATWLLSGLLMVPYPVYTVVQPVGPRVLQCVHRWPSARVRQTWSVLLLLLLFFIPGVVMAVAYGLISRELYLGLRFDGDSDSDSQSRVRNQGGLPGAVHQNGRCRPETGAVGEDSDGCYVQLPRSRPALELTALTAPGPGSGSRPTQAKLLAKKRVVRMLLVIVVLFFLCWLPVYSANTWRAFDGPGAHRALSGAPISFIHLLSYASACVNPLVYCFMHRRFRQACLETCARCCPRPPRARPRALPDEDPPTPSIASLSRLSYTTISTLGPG

ovariectomized CD-1 mice [1] = assay: Bone strength (Instron), Model 1 mouse OVX; type: in vivo
ovariectomized CD-1 mice [2] = assay: Circulating blood markers, Model 1 mouse OVX; type: in vivo
Description: Ovariectomy increased all three bone markers, PINP, CTX1 and osteocalcin. […] CON=control animals, OVX=ovariectomized animals, OVX+GA=gastrin antagonist treated ovariectomized animals. Mean±SEM. *p<0.05 vs. CON, **p<0.05 vs. OVX alone.
Circulating bone biomarkers were also altered by OVX. Specifically, PINP was increased (0.19±0.01 ng/ml vs. 0.1y±0.006, p<0.05) as was CTx-1 (0.60±0.14 ng/ml vs. 0.29±0.13, p<0.05) and osteocalcin was elevated (6.7±2.3 ng/ml vs. 4.1±1.2, p<0.05). Treatment with the antagonist attenuated each of these three ovariectomy-mediated alterations.

[3] = test system: calvarial osteoblasts, hFOB, BMMSCs; assay: Gene expression in bone-derived cells (ALKP, M-CSF, RANKL); type: cell-based, mouse, human; settings: YF476 1 nM, preincubation
Description: This was reversed by the selective CCK2 receptor antagonist, YF476 (1 nM).

[4] = test system: calvarial osteoblasts, hFOB, BMMSCs; assay: Proliferation (BrdU uptake) of bone-derived cells; type: cell-based, mouse, human; settings: pre-incubation
ovariectomized CD rats = assay: Bone strength (Instron), Model 2 rat OVX; type: in vivo
[5] = test system: human PTH cells co-cultured with MTC-SK cell line; assay: PTH cell / MTC-SK co-culture: PTH and calcitonin transcription and secretion; type: cell-based; settings: preincubation 10 mins, YF476 10 nM
Description: Human PTH cells isolated from surgical specimens were co-cultured with the MTC-SK cell line. […] These effects could be reversed by preincubation (10 mins) with the selective CCK2 receptor antagonist, YF476 (10 nM). […] PET=polyester membrane ([…]).
These effects were reversed by preincubation with the selective CCK2 antagonist, YF476.

[6] = OVX Mastomys + loxitidine, GA 10 ug/animal single s.c., 8 weeks, cortical bone
[7] = OVX Mastomys + loxitidine, GA 10 ug/animal single s.c., 8 weeks, trabecular bone
[8] = OVX Mastomys + loxitidine, GA 10 ug/animal single s.c., 8 weeks, trabecular bone, listed as GA
[9] = OVX Mastomys + loxitidine, GA 10 ug/animal single s.c., 8 weeks, trabecular bone, listed as Gastrin antagonist
[10] = OVX Mastomys, GA-treated vs control, cortical bone
[11] = OVX Mastomys, GA-treated vs control, trabecular bone
[12] = OVX CD-1 mice + omeprazole, GA 15 ug/animal single s.c., 8 weeks
[13] = OVX CD-1 mice, GA-treated vs control
[14] = OVX CD rats + omeprazole, GA 50 ug/animal single s.c., 8 weeks
[15] = OVX CD rats, GA-treated vs control

## CNc1cccc(NC(=O)N[C@@H]2N=C(c3ccccn3)c3ccccc3N(CC(=O)C(C)(C)C)C2=O)c1 [YF476, netazepide]
Ovariectomized Mastomys; [6]
  BS: 14.21
  BV/TV: 0.953
  Ct. Th: 0.288
  Dens (Apparent Density, cortical): 1159
  pMOI: 1.10
Ovariectomized Mastomys; [7]
  BS: 19.2
  BV/TV: 0.175
  Conns-Dens: 124.1
  SMI: 0.74
  Tb. Sp: 0.457
Ovariectomized Mastomys; [8]
  Dens (Apparent Density, trabecular): 187.1
  Tb. N: 2.38
  Tb. Th: 0.086
Ovariectomized Mastomys; [9]
  Dens (Apparent Density, trabecular): 187±66
  Tb. N: 2.4±0.6
  Tb. Th: 0.08±0.01
Ovariectomized Mastomys; [10]
  % Change BS: −1%
  % Change BV/TV: 0%
  % Change Ct. Th: −1%
  % Change Dens (Apparent Density, cortical): −4%
  % Change pMOI: −4%
Ovariectomized Mastomys; [11]
  % Change BS: +4%**
  % Change BV/TV: +27%**
  % Change Conns-Dens: +28%
  % Change Dens (Apparent Density, trabecular): +19%**
  % Change SMI: 0%
  % Change Tb. N: +18%**
  % Change Tb. Sp: −20%**
  % Change Tb. Th: +25%*^; **
CCK2 receptor
  effect on gastrin-mediated calcitonin secretion: reversed
  effect on gastrin-stimulated cAMP production: reversed
CCK2 receptor; without gastrin
  effect alone on cAMP production: no significant effect
Ovariectomized CD-1 mice [1]; [12]
  Max Load: 44.1
  Stiffness: 285
  Total Work: 19.4
  Yield (Stiffness): 256
Ovariectomized CD-1 mice [1]; OVX CD-1 mice + omeprazole, GA 15 ug/animal single s.c., 8 weeks, listed as GA
  Fracture Load: 42.8
Ovariectomized CD-1 mice [1]; OVX CD-1 mice + omeprazole, GA 15 ug/animal single s.c., 8 weeks, listed as gastrin antagonist
  Fracture Load: 43±6
Ovariectomized CD-1 mice [1]; [13]
  % Change Fracture Load: −24%*
  % Change Max Load: −28%*
  % Change Stiffness: −3%**
  % Change Total Work: −4%**
  % Change Yield (Stiffness): −5%**
Ovariectomized CD-1 mice [2]; [12]
  CTX-1: 053 ng/mL
  ESR (circulating estrogen): 1.47 pg/mL
  Gastrin (circulating): 2971 pg/mL
  Osteocalcin: 5.3 ng/mL
  PINP: 0.169 ng/mL
  PTH (circulating): 92.1 pg/mL
Ovariectomized CD-1 mice [2]; [13]
  % Change CTX-1: −9%**
  % Change ESR: −71%*
  % Change Gastrin: +22%
  % Change Osteocalcin: +30%**
  % Change PINP: 0%**
  % Change PTH: +79%*
[3]
  effect on gastrin-inhibited gene expression: reversed and normalized
[4]
  effect on gastrin-stimulated proliferation: not inhibited; also recorded: not reversed
Ovariectomized CD rats; [14]
  Fracture Load: 276
  Max Load: 282
  Stiffness: 565
  Total Work: 276
  Yield (Stiffness): 508
Ovariectomized CD rats; [15]
  % Change Fracture Load: −8%
  % Change Max Load: 0%
  % Change Stiffness: −2%**
  % Change Total Work: 0%
  % Change Yield (Stiffness): −2%**
[5]
  effect on gastrin effects in co-culture: reversed
